Laboratory results: patent US20190248834A1, “ENDOMORPHIN-2, TETRAPEPTIDE DERIVATIVES THEREOF, AND USES THEREOF” (priority 2016, published 2019)
Primed or numbered codes have the meaning given here. *: point of attachment. NHPhenethyl = c1ccc(CCN*)cc1; Bz′ = not defined here; NHBn = c1ccc(CN*)cc1; NHNHAc = CC(=O)NN*; NHiPr = CC(C)N*; For = O=C*; NHOH = ON*

Key:
Assay type in all cases: in vivo, human
[1] = system: periostitis of right upper tibia, osteoarthritis of left knee, left hip joint pain, lower back pain; assay: Example 87: pain relief at multiple sites in one subject, topical; settings: for degree of analgesic effect / duration of pain relief / pain relief at the treated sites / time to pain relief: 0.8% (w/v) in WEP442, topical to the sites of pain; for duration of pain relief, right upper tibia: 0.8% (w/v) in WEP442, periostitis of right upper tibia
Source text: A caregiver subject, presented with (a) painful periostitis of the right upper tibia for about 3 months, (b) painful early osteoarthritis of the left knee for about 1 year, (c) painful left hip joint of about 6 months, and (d) lower back pain near the end of the work day for about 2 years.
Over the course of 16 days, this subject evaluated the analgesic efficacy of eight (8) endomorphin-2 tetrapeptide derivatives in WEP442 at a concentration of 0.8% (w/v) applied topically to the sites of pain.
The lower back pain returned toward the end of the following work day.
Relief of lower back pain lasted for 20-24 hours (4+ effect). […]
For the above same subject, the composition containing 0.8% (w/v) of N-Ac-Tyr-Pro-Phe-Phe-NHCH(CH3)2 (SEQ ID NO: 27) in WEP442 was topically applied to the right upper tibia, left knee and left hip.
For the above same subject, the composition containing 0.8% (w/v) of N-Fo-Tyr-Pro-Phe-Phe-NH2 (SEQ ID NO: 104) in WEP442 was topically applied to 3 sites. Relief of pain was variable. […] Relief of pain in the right upper tibia was complete in about 4 minutes, lasting for 12 hours.
For the above same subject, the composition containing 0.8% (w/v) of N-Bz-Tyr-Pro-Phe-Phe-NH2 (SEQ ID NO: 84) in WEP442 provided relief of pain within 2-4 minutes. On the left hip, the relief was complete, lasting for about 12 hours (4+ effect). On the left knee, relief was incomplete, about 50%, lasting for only about 3 hours (2+ effect). On the right upper tibia, relief was complete and lasted for about 12 hours (4+ effect).

[2] = system: severe osteoarthritis of both knees; assay: Example 88: analgesic efficacy of eight derivatives on severe osteoarthritis, topical
Protocol: A subject with severe osteoarthritis of both knees for a duration of about 7 years evaluated numerous tetrapeptide derivatives over the past years. […] Over the course of 3 weeks, this subject evaluated the analgesic efficacy of eight (8) endomorphin-2 tetrapeptide derivatives in WEP442 at a concentration of 1% (w/v) applied topically to the knees.
Reapplication at the end of that time again provided the same effect. Application at bedtime provided relief of pain for 7 hours. The same results were achieved the next day (3+ to 4+ effect).
A second application, about 15 minutes later, provided somewhat more relief (2+ effect).
Application at 9:30 p.m. provided relief until 5:30 a.m., and similar results were achieved the next day (3+ to 4+ effect).
No modification of pain in the right knee, which had received application of vehicle WEP442 as a control, was detected. Application of the composition containing the tetrapeptide derivative to the right knee about 15 minutes later provided prompt relief of pain. Pain relief in both knees lasted for about 5 hours (3+ to 4+ effect).
Relief lasted for about 3 hours. Re-application at that time provided the same degree of pain relief in about 5 minutes, which lasted about another 3 hours (2+ effect).
For the above same subject, the composition containing 1% (w/v) of N-Fo-Tyr-Pro-Phe-Phe-NH2 (SEQ ID NO: 104) in WEP442 was applied to the left knee, and the composition containing 1% (w/v) of N-Bz-Tyr-Pro-Phe-Phe-NH2 (SEQ ID NO: 84) in WEP442 was applied to the right knee moments later. Relief of pain in both knees seemed equivalent, was detectable in 5-7 minutes and lasted for about 4 hours. This procedure was repeated the next day with about the same results. The degree of pain relief from both solutions was rated as 3+ effect.

[3] = system: psoriatic arthritis of interphalangeal joints of the fingers; assay: Example 93: multiple derivatives evaluated for relief of pain associated with psoriatic arthritis, topical; settings: 0.8% (w/v) in WEP442, topical to both hands
Source text: A subject with extensive plaque psoriasis and psoriatic arthritis of interphalangeal joints of the fingers evaluated multiple tetrapeptide derivatives for comparative effectiveness on relief of their painful fingers. Over the course of 4 weeks, this subject evaluated the analgesic efficacy of ten (10) endomorphin-2 tetrapeptide derivatives in WEP442 at a concentration of 0.8% (w/v) applied topically to both hands, which included all fingers.

[4] = 1% (w/v) in WEP442, topical to the knees
[5] = 0.8% (w/v) in WEP442, left knee
[6] = 0.8% (w/v) in WEP442, lower lumbar
[7] = 0.8% (w/v) in WEP442, right upper tibia

Row | Substance | degree of analgesic effect [1] | duration of pain relief [1] | pain relief at the treated sites [1] | time to pain relief [1] [min] | analgesic effect grade [2, 4] | pain relief [2, 4] | duration of pain relief [3] | pain relief [3] | time to pain relief [3] [min] | degree of analgesic effectiveness [3] | duration of pain relief [2, 4] | time to pain relief [2, 4] [min] | duration of pain relief, right upper tibia [1] | further results
1 | N-Ac-Tyr-Pro-Phe-Phe-NHCH2C6H5 (Ac-YPFF-NHBn; SMILES CC(=O)N[C@@H](Cc1ccc(O)cc1)C(=O)N1CCC[C@H]1C(=O)N[C@@H](Cc1ccccc1)C(=O)N[C@@H](Cc1ccccc1)C(=O)NCc1ccccc1) | 4+ | ≥ 5 h | complete relief of pain | 3 to 4 | 1+ (1+ (25%): partial relief of pain for less than 4 hours) | little relief of pain | about 6 hours | substantial relief of pain | 3 to 5 |  |  |  |  | analgesic effect grade ([2]; 1% (w/v) in WEP442, second application about 15 minutes later): 2+ (2+ (50%): substantial but incomplete relief of pain for less than 4 hours)
2 | N-Ac-Tyr-Pro-Phe-Phe-NHCH2CH2C6H5 (Ac-YPFF-NHPhenethyl; SMILES CC(=O)N[C@@H](Cc1ccc(O)cc1)C(=O)N1CCC[C@H]1C(=O)N[C@@H](Cc1ccccc1)C(=O)N[C@@H](Cc1ccccc1)C(=O)NCCc1ccccc1) | 0 (zero represented no relief) |  | no detectable analgesic effect |  | 0 | no detectable analgesic effect |  | no detectable analgesic effect |  | 0 (zero represented no relief) |  |  |  | 
3 | N-Ac-Tyr-Pro-Phe-Phe-NHCH2CH3 (Ac-YPFF-NHEt; SMILES CCNC(=O)[C@H](Cc1ccccc1)NC(=O)[C@H](Cc1ccccc1)NC(=O)[C@@H]1CCCN1C(=O)[C@H](Cc1ccc(O)cc1)NC(C)=O) | 4+ | ≥ 5 h | complete relief of pain | 3 to 4 |  | very good relief of pain | about 7 hours | complete relief of pain | 1 to 2 | 4+ | 3 to 4 h | 3 to 5 |  | duration of pain relief ([2]; 1% (w/v) in WEP442, application at bedtime): 7 h
4 | N-Ac-Tyr-Pro-Phe-Phe-NHCH(CH3)2 (Ac-YPFF-NHiPr; SMILES CC(=O)N[C@@H](Cc1ccc(O)cc1)C(=O)N1CCC[C@H]1C(=O)N[C@@H](Cc1ccccc1)C(=O)N[C@@H](Cc1ccccc1)C(=O)NC(C)C) | 4+ | at least 4 hours | Complete relief of pain | 3 to 4 | 2+ (2+ (50%): substantial but incomplete relief of pain for less than 4 hours) | moderate relief of pain | 2 to 3 h | only minimal relief of pain | 5 to 6 |  | about 3 hours | ≤ 15 | 7 h | 
5 | N-Ac-Tyr-Pro-Phe-Phe-NHNHAc (Ac-YPFF-NHNHAc; SMILES CC(=O)NNC(=O)[C@H](Cc1ccccc1)NC(=O)[C@H](Cc1ccccc1)NC(=O)[C@@H]1CCCN1C(=O)[C@H](Cc1ccc(O)cc1)NC(C)=O) | 4+ | 8 to 24 h | complete relief of pain | 1 to 2 |  | substantial relief of pain | about 7 hours | complete relief of pain | ≤ 2 | 4+ | about 5 hours | 2 to 3 |  | 
6 | N-Ac-Tyr-Pro-Phe-Phe-NHOH (Ac-YPFF-{NHOH}; SMILES CC(=O)N[C@@H](Cc1ccc(O)cc1)C(=O)N1CCC[C@H]1C(=O)N[C@@H](Cc1ccccc1)C(=O)N[C@@H](Cc1ccccc1)C(=O)NO) | 4+ | ≥ 12 h | complete relief of pain | ≤ 1 |  | very good relief of pain | about 2 hours | complete relief of pain | 1 to 2 |  | about 5 hours | 3 to 4 |  | duration of relief of lower back pain ([1]; 0.8% (w/v) in WEP442, lower back): 20 to 24 h
7 | N-Bz-Tyr-Pro-Phe-Phe-NH2 ({Bz′}-YPFF-NH2) |  |  |  | 2 to 4 |  |  | about 10 hours | incomplete, but substantial relief of pain | 4 to 5 |  | about 4 hours |  | about 12 hours | degree of analgesic effect, left hip ([1]; 0.8% (w/v) in WEP442, left hip): 4+; duration of pain relief, left hip ([1]; 0.8% (w/v) in WEP442, left hip): about 12 hours; pain relief, left hip ([1]; 0.8% (w/v) in WEP442, left hip): complete; duration of pain relief, left knee [1, 5]: about 3 hours; degree of analgesic effect, lower lumbar pain [1, 6]: 4+; duration of pain relief, lower lumbar pain [1, 6]: about 4 hours; pain relief, lower lumbar pain [1, 6]: responded completely; degree of analgesic effect, right upper tibia [1, 7]: 4+; pain relief, right upper tibia [1, 7]: complete
8 | N-Fo-Tyr-Pro-Phe-Phe-NH2 (For-YPFF-NH2; SMILES NC(=O)[C@H](Cc1ccccc1)NC(=O)[C@H](Cc1ccccc1)NC(=O)[C@@H]1CCCN1C(=O)[C@H](Cc1ccc(O)cc1)NC=O) |  |  |  |  |  |  | 2 to 3 h | only minimal relief of pain | 5 to 6 |  | about 4 hours |  | 12 h | time to pain relief, left hip ([1]; 0.8% (w/v) in WEP442, left hip): about 5 minutes; pain relief, left knee [1, 5]: No relief of pain; pain relief, right upper tibia [1, 7]: complete; time to pain relief, right upper tibia [1, 7]: about 4 minutes
